Assay results taken from patent publication US9072751B2, “Na/K-ATPase ligand” (priority 2006, dated 2015).

Assays:
[1] = tested on: isolated cardiac fibroblasts; type: cell-based, rat; conditions: for Effect on MBG stimulation of collagen synthesis (procollagen expression): MBG 10 nM 24 h, PP2 1 μmol/L, herbimycin 1 μmol/L, AG1478 250 nM, N-acetyl cysteine 2.5 mmol/L from 2 hours before
Protocol: (§1) Preparation of adult rat cardiac fibroblasts was performed as described previously by Brilla et al. with modifications.
Western blot analysis was performed on protein isolated from tissue homogenates, cell culture whole cell lysates, or nuclear extracts as described previously.
(§2) Representative Western blot for procollagen and quantitative densitometric data obtained in response to different doses of (a) MBG (all N=10), (b) MBG 10 nM contrasted with different doses of ouabain (0.1 to 100 nM) and digoxin (10 nM; all N=8). c, ouabain sensitive Rb uptake as a function of MBG and ouabain concentration (N=4 at each concentration for both MBG and ouabain; data expressed as fraction of control). d, relative proline incorporation in the supernatant and matrix, both will and without collagenase digestion (total). Each group (controls and different doses of MBG) contains N=7 replicants. The difference between the total and after collagenase digestion is reported as collagen. The matrix is the sample that was obtained after removing supernatant and scraping the culture dish. e, mRNA for collagen 1 in MBG-treated (10 nM; N=8) or control (N=8) fibroblasts. f, procollagen stability after cycloheximide treatment. Time 0 is 1 hour after incubation with cycloheximide (20 μg/mL). […] Least-square regression line fit to control (CTL) and MBG data. Bars on quantitative graphs represent the mean.+−.SEM. *P<0.05 and **P<0.01 vs control.
(§3) The PP2, herbimycin AG1478, and N-acetyl cysteine were administered from 2 hours before the addition of MBG and continued throughout the 24 hours of MBG incubation (total of 26 hours). Each bar represents the mean.+−.SEM of n=8 experiments. b, effects of PP2 (1 μmol/L) and N-acetyle cysteine (2.5 mmol/L) on MBG (10 nM)-stimulated proline incorporation into collagen. Again, the PP2 an N-acetyl cysteine were added 2 hours before exposure to MBG. Each bar represents the mean.+−.SEM of N=5 experiments. c, effects of MBG 10 nM on procollagen content in SYF and SYF+ cells. Representative Western blots are shown above quantitative data. SYF blots loaded with 15 μg of protein and SYF+blots loaded with 10 μg of protein. Each bar represents the mean.+−SEM of N-6 determinations In each group. **P<01.10 vs. control.
(§4) The effect of 24 hours of MBG (1 and 10 nM) on TGF-β, Smad 2/3, Smad 4, and pSmad 2/3 expression determined by Western blot. b and c, effects of 24 hours of MBG (10 nM), TGFβ(5 ng/mL), and the TGF-β receptor antagonist SB431542 ([…] on procollagen-1 expression (Western blot) and radiolabeled proline incorporation, respectively also were carried out. SB431542 was added 2 hours before exposure to either TGFβ or MBG (total of 26-hour exposure). Each bar represents the mean.+−.SEM of 6 to 8 determinations. *P<0.05, **P<0.01 vs. control.

[2] = tested on: isolated cardiac fibroblasts; assay: Radiolabeled proline incorporation into collagen (collagen synthesis) in cardiac fibroblasts; type: cell-based, rat; conditions: for Effect on MBG-stimulated proline incorporation into collagen: MBG 10 nM, PP2 1 μmol/L, N-acetyl cysteine 2.5 mmol/L added 2 hours before
Protocol: as §1
Collagen synthesis rates were determined by the method of Nishida et al. with modification.
(§5) To further examine the molecular basis of this cardiac fibrosis, isolated cardiac fibroblasts were subjected to increase doses of MBG (10^−10, 10^−9, and 10^−8 M). […] Using collagenase digestion, we observed that the vast majority of the proline incorporation was into collagen. Using standardized RT-PCR, we observed a doubling of mRNA for collagen-1 at 24 hours in response to 10 nM of MBG.
as §2
as §3, with “The effects of PP2 (1 μmol/L), herbimycin (1 μmol/L), AG1478 (250 nM), and N-acetyl cysteine (2.5 mmol/L) on MBG (10 nM) stimulation of procollagen expression also were found. The” for “The”
as §4

Milan hypertensive rats = conditions: cited from earlier work
fibroblast cell line = assay: Procollagen expression in immortalized fibroblast cell line (Western blot); type: cell-based
From the text: We next examined whether skin fibroblasts lines had similar response. This was done with dermal fibroblasts kindly provided by Dr. Bashar Kahaleh. […] The magnitude of this response is illustrated by comparison to maximal doses of TGFβ, the “classic” stimulus for fibrosis (see below). In addition, we observed that an immortalized fibroblast line responded similarly to MBG, ouabain and digoxin.
Response of dermal fibroblasts to MBG as compared with TGF beta. Note that increase in collagen expression in MBG is approximately 10 fold with 5 or 10 nM MBG.

[3] = cited from earlier work
Na/K-ATPase = molecular target: T1, Na/K-ATPase (Rattus norvegicus, UniProt P06685); assay: Ouabain sensitive 86Rb uptake in cardiac fibroblasts; type: cell-based
T1 construct: In vitro studies were then pursued with cultured isolated cardiac fibroblasts; endogenous in cells; host or cells: primary isolated cardiac fibroblasts in culture
Protocol: as §5
Representative Western blot for procollagen and quantitative densitometric data obtained in response to different doses of (a) MBG (all N=10), (b) MBG 10 nM contrasted with different doses of ouabain (0.1 to 100 nM) and digoxin (10 nM; all N=8). c, ouabain sensitive Rb uptake as a function of MBG and ouabain concentration (N=4 at each concentration for both MBG and ouabain; data expressed as fraction of control). d, relative proline incorporation in the supernatant and matrix, both will and without collagenase digestion (total). Each group (controls and different doses of MBG) contains N=7 replicants. The difference between the total and after collagenase digestion is reported as collagen. […] Bars on quantitative graphs represent the mean.+−.SEM. *P<0.05 and **P<0.01 vs control.

SYF cells = assay: Procollagen expression in SYF cells; type: cell-based; conditions: MBG 10 nM
From the text: (§6) To examine whether cardiotronic steroids induced collagen synthesis by signaling through the Na/K-ATPase, we performed the following studies. First, we used pharmacological antagonism at several steps in the Na/K-ATPase cascade. Specifically, we used pharmacological antagonism of Src activation with PP2, nonspecific tyrosine kinase inhibition with herbimycin, inhibition of EGFR transactivation with AG1478, and nonspecific antioxidant administration with N-acetyle cysteine. […] Next we performed studies in the SYF and SYF+ cells (details available in the online supplement).
as §3, with “The effects of PP2 (1 μmol/L), herbimycin (1 μmol/L), AG1478 (250 nM), and N-acetyl cysteine (2.5 mmol/L) on MBG (10 nM) stimulation of procollagen expression also were found. The” for “The”, “SYF blots loaded with 15 μg of protein and SYF+blots loaded with 10 μg of protein. Each bar represents the mean.+−SEM of N-6 determinations In each group. **P<01.10 vs. control.” left out

SYF+ cells = assay: Procollagen expression in SYF+ cells; type: cell-based; conditions: MBG 10 nM
From the text: as §6
as §3, with “The effects of PP2 (1 μmol/L), herbimycin (1 μmol/L), AG1478 (250 nM), and N-acetyl cysteine (2.5 mmol/L) on MBG (10 nM) stimulation of procollagen expression also were found. The” for “The”, “SYF blots loaded with 15 μg of protein and SYF+blots loaded with 10 μg of protein. Each bar represents the mean.+−SEM of N-6 determinations In each group. **P<01.10 vs. control.” left out

fibroblasts = conditions: 48 hours, 15 ng/mL; cited from earlier work

Q: For COc1cc2ncnc(Nc3cccc(Cl)c3)c2cc1OC [AG1478], which “Effect on MBG stimulation of collagen synthesis (procollagen expression)” value (“Effect on MBG stimulation” below) [1] is on record?
A: The value was “prevented MBG stimulation of collagen synthesis”.

Q: With CC(=O)N[C@@H](CS)C(=O)O [N-acetyl cysteine] as the molecule, how does the “Effect on MBG stimulation” value [1] read?
A: Its value is “prevented MBG stimulation of collagen synthesis”.

Q: And the “Effect on MBG-stimulated proline incorporation into collagen” value [2]?
A: Its value is “prevented increases in proline incorporation into collagen”.

Q: Which “Effect on MBG stimulation” value [1] does the source give for CC(C)(C)n1nc(-c2ccc(Cl)cc2)c2c(N)ncnc21 [PP2] here?
A: The value was “prevented MBG stimulation of collagen synthesis”.

Q: What about the “Effect on MBG-stimulated proline incorporation into collagen” value [2] of the same molecule?
A: Its value is “prevented increases in proline incorporation into collagen”.

Q: For C[C@]12CC[C@H](O)C[C@H]1CC[C@@H]1[C@@H]2CC[C@]2(C)[C@@](O)(c3ccoc3)CC[C@]12O [PST 2238], which “Effect on hypertension and cardiac hypertrophy” value (Milan hypertensive rats) is on record?
A: The value was “ameliorates hypertension, as well as cardiac hypertrophy”.

Q: Which “Procollagen expression relative to baseline (Western blot)” value ([1]; 100-μmol/L) does the source give for NC(=O)c1ccc(-c2nc(-c3ccc4c(c3)OCO4)c(-c3ccccn3)[nH]2)cc1 [SB431542] here?
A: Its value is “did not educe procollagen expression below baseline”.

Q: And the “Effect on TGF-β and MBG (10 nM) stimulation of collagen expression” value ([1]; SB431542 added 2 hours before)?
A: The value was “completely blocked”.

Q: What about the “Radiolabeled proline incorporation relative to control cells” value ([2]; 100-μmol/L) of the same molecule?
A: Its value is “did decrease radiolabeled proline incorporation below that seen with control cells”.

Q: And the “Effect on TGF-β and MBG (10 nM) stimulation of radiolabeled proline incorporation” value ([2]; SB431542 added 2 hours before)?
A: Its value is “completely blocked”.

Q: Which “Effect on fibroblast cell line expression of procollagen” value (fibroblast cell line) does the source give for C[C@H]1O[C@@H](O[C@H]2[C@@H](O)C[C@H](O[C@H]3[C@@H](O)C[C@H](O[C@H]4CC[C@@]5(C)[C@H](CC[C@@H]6[C@@H]5C[C@@H](O)[C@]5(C)[C@@H](C7=CC(=O)OC7)CC[C@]65O)C4)O[C@@H]3C)O[C@@H]2C)C[C@H](O)[C@@H]1O [digoxin] here?
A: Its value is “Comparable effect”.

Q: What about the “Free fraction of plasma digoxin” value ([3]; human, in vivo) of the same molecule?
A: The value was 70% to 80%.

Q: What about the “Total digoxin levels typically maintained in patients” value ([3]; patients treated with digoxin) of the same molecule?
A: The value was under 2 ng/mL.

Q: Which “Effect on MBG stimulation” value [1] does the source give for CO[C@H]1[C@@H](OC)C[C@H](C)[C@@H](OC)C2=CC(=O)C=C(NC(=O)/C(C)=C/C=C\[C@H](OC)[C@@H](OC(N)=O)/C(C)=C/[C@@H]1C)C2=O [herbimycin] here?
A: Its value is “prevented MBG stimulation of collagen synthesis”.

Q: Which “Threshold for inducing collagen expression relative to doses with detectable effects on 86Rb uptake” value (Na/K-ATPase) does the source give for C[C@@H]1O[C@@H](O[C@H]2C[C@@H](O)[C@]3(CO)[C@H]4[C@H](O)C[C@]5(C)[C@@H](C6=CC(=O)OC6)CC[C@]5(O)[C@@H]4CC[C@]3(O)C2)[C@H](O)[C@H](O)[C@H]1O [ouabain, reference compound] here?
A: The value was “log units below”.

Q: What about the “Response of procollagen expression in SYF cells” value (SYF cells) of the same molecule?
A: The value was “essentially no response”.

Q: And the “Effect on fibroblast cell line expression of procollagen” value (fibroblast cell line)?
A: The value was “Comparable effect”.

Q: What about the “Upregulation of procollagen expression in SYF+ cells” value (SYF+ cells) of the same molecule?
A: Its value is “very similar way as the primary cardiac fibroblast cultures”.

Q: For TGF-β, which “Synergism with MBG on procollagen expression” value ([1]; TGF-β 5 ng/mL and MBG 10 nM) is on record?
A: Its value is “did not note any synergism”.

Q: What about the “Maximal increase in collagen production” value (fibroblasts) of the same molecule?
A: Its value is 2 times.
